From patent US7456156B2, “Aryl boronic acids for treating obesity” (Genzyme Corporation, priority 2001, dated 2008)

System: fat absorption through lipase inhibition
Experiment: In vivo infusion assay in rats (olive oil gavage, triglyceride recovered from intestinal contents)
Settings: rats gavaged with 4 mL olive oil emulsion with drug after 18 hour fast, intestinal contents after 8 hours; for In Vivo Infusion Assay in Rats ED50 (mg/g fat) or estimate: dose at half the maximum recoverable triglyceride
Procedure: Test compounds were dissolved in DMSO or dionized water. […] Samples were stored at −80° C. until lyophilization.
3 milliliters of hexane was added to each tube then it was capped and vortexed for 15 seconds at high speed. 3 milliliters of 1 N HCl was added then samples were subjected to wrist-action shaking for 1 hour.
The data was expressed as follows. […] The milligrams/liters values obtained from the HPLC analysis were entered.

Compound	In Vivo Infusion Assay in Rats ED50 (mg/g fat) or estimate [mg/g fat]	In Vivo Infusion Assay in Rats Ed50 (mg/kg body wt) or estimate (dose per body weight) [mg/kg body wt]	ED50 (Rattus norvegicus, po, dose per body weight, read-out: In Vivo Infusion Assay in Rats Ed50 (mg/kg body wt) or estimate) [mg/kg]
4-(14′-triethylammonium-3′-thia-1′-keto-tetradecyl)-3-phenyl-boronic acid bromide	11	82.5	
4-(14′-trimethylammonium-3′-thia-1′-keto-tridecyl)-3-fluorophenyl-boronic acid bromide	2	15	
C[N+](C)(C)CCCCCCCCCCCSCC(=O)c1ccc(B(O)O)cc1 [4-(14′-trimethylammonium-3′-thia-1′-keto-tetradecyl)-phenyl-boronic acid bromide]	8		60
